From patent US11612605B2, “(+)-azasetron for use in the treatment of ear disorders” (SENSORION, priority 2016, dated 2023) come the findings set out here.

Read-outs that look alike come from different tables or passages of the source.

For data set [1], the system named is cochlear outer hair cells (OHC). In words: Outer hair cell survival after cisplatin (cochleograms from whole-mount fixed cochleae). It is filed as in vivo, female Wistar rats. Conditions: 14 days of treatment after cisplatin.
Description: Two days after baseline audiometry (ABR and DPOAE measurements), oral treatment was initiated in both groups 15 minutes before 8 mg/kg cisplatin infusion during 30 minutes under isoflurane anesthesia. On D14, ABR and DPOAE measurements were performed to evaluate ABR threshold shifts and DPOAE amplitude loss relative to baseline and the temporal bones of each animal were subsequently preserved with PFA fixation for histology (FIG. 5).
To evaluate the effect of (+) azasetron on outer hair cells (OHC) survival after cisplatin administration at an ototoxic dose, cochleograms of surviving OHCs were constructed from whole-mount fixed cochleae.
The test system of data set [2] is unilateral vestibular dysfunction induced by intratympanic kainic injection. In words: Kainate model of peripheral excitotoxic vestibular injury: spontaneous nystagmus and roll angle deviation. It is filed as in vivo, female Long-Evans. The following applies: 5.6 mg/kg intraperitoneal daily for 3 days. The procedure:
The capacity of (+)-azasetron besylate to protect against lesions in the peripheral vestibular system was assessed using the kainate model of peripheral excitotoxic injury. Following unilateral, transtympanic injection of the excitotoxic kainic acid leading to the swelling, retraction and uncoupling of synapses between vestibular sensory hair cells and primary afferent neurons, baseline recordings of spontaneous nystagmus (pathological eye movements caused by a deficit of the vestibuloculomotor reflex) and postural deviations are performed before randomization to treatment groups. Recordings were repeated daily for 3 days, then again at D6 and D13 after lesion induction.
Following lesion induction and baseline recordings at t=1h, female Long-Evans were randomized to receive intraperitoneal injections of placebo (n=18) or 5.6 mg/kg (+)-azasetron besylate daily for 3 days (t=1/24/[…]). Recording of spontaneous nystagmus and postural deviations were repeated at 2/4/6/24/25/48/49 hours and D6/D13 after initial lesion induction (FIG. 9).

Data set [3] can be described thus: Pharmacokinetics study: exposure in inner ear, perilymph and tail plasma after single oral dose. The class given is in vivo, Wistar rats. Conditions: for AUC: po, 10 mg/kg, 10 mg/kg p.o., per-interval AUC of azasetron free-base. The text has this:
The 72 male Wistar rats received on 28 Jan. 2016 from Janvier (Janvier, Le Genest-St-Isle) were assigned to the study. They were divided in 3 groups of 24 animals each, one group per test article. Each group was divided in […] subgroups according to the 6-termination time-points.
72 Wistar rats were subjected to oral single dose administration of the test article, racemic azasetron hydrochloride, azasetron hydrochloride (+) or azasetron hydrochloride (−), and sacrificed at different time-points to assess the exposure of the test article in the inner ear, perilymph, and plasma. • Group racemic azasetron: 24 male Wistar, 4 rats per time-point: 10 mg/kg azasetron HCl dissolved in NaCl 0.9%. Administrated as 5 mL/kg p.o.; • Group azasetron (+): 24 male Wistar, 4 rats per time-point: 10 mg/kg (+)-azasetron HCl dissolved in NaCl 0.9%. Administrated as 5 mL/kg p.o.; • Group azasetron (−): 24 male Wistar, 4 rats per time-point: 10 mg/kg (−)-azasetron HCl dissolved in NaCl 0.9%. Administrated as 5 mL/kg p.o.
There were 6 termination time-points for each test article. At time-points 15/30/60/120/240/480 minutes after administration: peripheral plasma from the tail was sampled. The animals were sacrificed by i.v. administration of 0.25 mL/rat of a 160 mg/mL pentobarbital solution. Following sacrifice, the heart blood and both tympanic bullas (left and right) were sampled.
Both tympanic bullas (left and right) were collected, however, only the left one was used for the perilymph and inner ear analysis. The right bulla was stored at −20° C. for future needs when required. For animal IDs 1 and 4, the right bulla was used for the sampling of perilymph and inner ear.
The left bulla was dissected fresh. Briefly, the bulla was opened via the auditory opening to reveal the bone surrounding the cochlea after which the tip of the bone was removed with forceps and a 10 μL pipette tip was inserted to withdraw perilymph.
Upon exposure of the tip of the cochlea, 2 μL of perilymph (fluid) could be recovered from the bulla. The perilymph was brought to 10 μL by the addition of 8 μL water, and then extract via the addition of 30 μL of acetonitrile. After that, the samples were centrifuged and the supernatant was transferred to a glass vial appropriate for the HPLC-MS auto-sampler.
Following recovering of the perilymph, the bones of the inner ear and cochlea components were removed with fine forceps and added to a tared Eppendorf tube. The collection was weighed and brought to 10 mg with the addition of water and placed on ice until extraction. 30 μL of acetonitrile was added and the tubes were incubated in an ultrasound bath, after which they were centrifuged and the supernatant was transferred to a glass vial appropriate for the HPLC-MS auto-sampler. In the process or removing the bones of the inner ear, they were finely distributed in the media and broken by forceps. (Due to the very low volume of the tissue and its fine structure, separate grinding is considered risky vs the potential losses to plastic and media. The materials are very fine in nature and the bone particles are small thus providing only short interfaces to media. The absence of fat and the incubation in solvent is intended to provide sufficient solubility of active ingredient).
The acetonitrile used in the sample preparation for bio-analysis contained the internal standard for the HPLC-MS analysis.
30 μL acetonitrile including the internal standard were added to each 10 μL plasma sample. After adding the acetonitrile, the samples were mixed by vortex and further centrifuged. The supernatant was transferred to a glass vial appropriate for the HPLC-MS auto-sampler.
The LC system comprised an Agilent 1260 liquid chromatography equipped with a binary pump and a column oven, together with a PAL HTS-xt auto-sampler. It is linked to the AB SCIEX TRIPLE QUADTM 4500 (triple-quadrupole) instrument with an ESI interface and a switching valve integrated (Mass spectrometric analysis). […]

For the molecule `CN1C(=O)COc2c(C(=O)NC3CN4CCC3CC4)cc(Cl)cc21.O=S(=O)(O)c1ccccc1` (single isomer, unassigned; (+)) [(+)-azasetron besylate], the “conservation of OHCs in the basal turn of the cochlea versus placebo” value in data set [1] was “up to 11 fold”. Also, the “number of surviving OHCs versus placebo” value in data set [1] (p<0.001) is “significantly higher”. Moreover, the “improvement (reduction) of roll angle deviation (postural head tilt) versus placebo” value in data set [2] (p<0.001) is on record as 30-62%. Besides, the “improvement of spontaneous nystagmus versus placebo” value in data set [2] (p=0.048) is 6-48%.

Consider `CN1C(=O)COc2c(C(=O)N[C@@H]3CN4CCC3CC4)cc(Cl)cc21` [(−)-azasetron], for which the “Total AUC Inner ear” value in data set [3] (10 mg/kg p.o. single dose) worked out at 27829 nM·min. In data set [3] (10 mg/kg p.o. single dose), the “Total AUC Perilymph” value came out at 11901 nM·min. The “Total AUC Tail plasma” value in data set [3] (10 mg/kg p.o. single dose) is 65448 nM·min. The concentration at 15 min in data set [3] (male, Wistar, rat, inner ear, oral, 10 mg/kg p.o. single dose, Time 15 (min), read-out: Average Inner ear concentration (ng azasetron free-base/g tissue)) worked out at 29 ng/g. In addition, in data set [3] (male, Wistar, rat, inner ear, oral, 10 mg/kg p.o. single dose, Time 30 (min), read-out: Average Inner ear concentration (ng azasetron free-base/g tissue)), the concentration at 30 min was 27 ng/g. In addition, in data set [3] (male, Wistar, rat, inner ear, oral, 10 mg/kg p.o. single dose, Time 60 (min), read-out: Average Inner ear concentration (ng azasetron free-base/g tissue)), the concentration at 60 min was 8 ng/g. The concentration at 120 min in data set [3] (male, Wistar, rat, inner ear, oral, 10 mg/kg p.o. single dose, Time 120 (min), read-out: Average Inner ear concentration (ng azasetron free-base/g tissue)) is 46 ng/g. The concentration at 240 min in data set [3] (male, Wistar, rat, inner ear, oral, 10 mg/kg p.o. single dose, Time 240 (min), read-out: Average Inner ear concentration (ng azasetron free-base/g tissue)) is 21 ng/g. Moreover, the concentration at 480 min in data set [3] (male, Wistar, rat, inner ear, oral, 10 mg/kg p.o. single dose, Time 480 (min), read-out: Average Inner ear concentration (ng azasetron free-base/g tissue)) was 3 ng/g. Besides, the AUC was 10.2 nM·h in data set [3] (male, Wistar, rat, inner ear, Time 15 (min), read-out: Inner ear AUC (converted)); 19.8 nM·h in data set [3] (male, Wistar, rat, inner ear, Time 30 (min), read-out: Inner ear AUC (converted)); 24.7 nM·h in data set [3] (male, Wistar, rat, inner ear, Time 60 (min), read-out: Inner ear AUC (converted)); 77.2 nM·h in data set [3] (male, Wistar, rat, inner ear, Time 120 (min), read-out: Inner ear AUC (converted)); 193 nM·h in data set [3] (male, Wistar, rat, inner ear, Time 240 (min), read-out: Inner ear AUC (converted)); 139 nM·h in data set [3] (male, Wistar, rat, inner ear, Time 480 (min), read-out: Inner ear AUC (converted)). Moreover, the area under the curve (AUC) was 5.07 nM·h in data set [3] (male, Wistar, rat, perilymph, Time 15 (min), read-out: Perilymph AUC (converted)); 10.2 nM·h in data set [3] (male, Wistar, rat, perilymph, Time 30 (min), read-out: Perilymph AUC (converted)); 15 nM·h in data set [3] (male, Wistar, rat, perilymph, Time 60 (min), read-out: Perilymph AUC (converted)); 36.3 nM·h in data set [3] (male, Wistar, rat, perilymph, Time 120 (min), read-out: Perilymph AUC (converted)); 74.7 nM·h in data set [3] (male, Wistar, rat, perilymph, Time 240 (min), read-out: Perilymph AUC (converted)); 57.1 nM·h in data set [3] (male, Wistar, rat, perilymph, Time 480 (min), read-out: Perilymph AUC (converted)). Besides, the AUC was 20.3 nM·h in data set [3] (male, Wistar, rat, tail plasma, Time 15 (min), read-out: Tail plasma AUC (converted)); 34 nM·h in data set [3] (male, Wistar, rat, tail plasma, Time 30 (min), read-out: Tail plasma AUC (converted)); 51.5 nM·h in data set [3] (male, Wistar, rat, tail plasma, Time 60 (min), read-out: Tail plasma AUC (converted)); 170 nM·h in data set [3] (male, Wistar, rat, tail plasma, Time 120 (min), read-out: Tail plasma AUC (converted)); 416 nM·h in data set [3] (male, Wistar, rat, tail plasma, Time 240 (min), read-out: Tail plasma AUC (converted)); 400 nM·h in data set [3] (male, Wistar, rat, tail plasma, Time 480 (min), read-out: Tail plasma AUC (converted)).

One may read the AUC as concentration integrated over time.
